# pIC50, pKd, pKi: −log10 of the molar value. Where “and” joins values, the source holds several entries; their conditions need not be identical. Equal values may be shown once. Read-outs that look alike come from different tables or passages of the source.
# How the values were obtained:
# [1] = target: sigma-1 receptor (Homo sapiens, UniProt Q99720); conditions: cited from earlier work
# [2] = target: sigma-1 (Cavia porcellus, UniProt Q60492); conditions: Table IV, reference 8; read-out: sigma-1 affinity IC50; cited from earlier work
# [3] = target: NMDA receptor; conditions: read-out: Ki NMDAR; cited from earlier work
# [4] = target: sigma-2 (Homo sapiens, UniProt Q5BJF2); conditions: read-out: Ki sigma-2; cited from earlier work
# [5] = in vivo; cited from earlier work
# [6] = cited from earlier work
# [7] = frequent and massive doses as large as 3300 mg/day; cited from earlier work
# [8] = tested on: patients with AF-NT (MTX neurotoxicity); experiment: Patients with AF-NT treated with oral dextromethorphan; assay type: in vivo, human
# Text: For example, the intensity, duration and frequency of neurological symptoms such as seizure, paralysis, nystagmus, ataxia, dysarthria, aphasia cranial nerve palsy, asthenia can be readily determined by clinical evaluation. A variety of validated grading methods are available to assess such symptoms. As used herein, useful strategies for grading such objective AF-NT symptoms include time to initial response, time to resolution of all symptoms, and a grade (1-3) of the rate of symptom resolution for the majority of all AF-NT symptoms. In this grading system, a grade 1 is where symptoms resolve gradually or linearly over an extended period exceeding 96 hours, a grade 2 is where the majority of symptoms resolve in 25 to 96 hours), and a grade 3 is where the majority of symptoms resolve in 24 hours or less: the greater the grade, the greater degree of symptom improvement. Physical deficits that can be objectively assessed generally appear in patients with moderate- to high-dose exposure to antifolate.
# The mean grade of symptom resolution for untreated patients was 1.4±0.2 (mean±SEM), while the mean grade of symptom resolution for treated patients was 2.3±0.2 (mean±SEM).
# [9] = Table IV, undefined agonist/antagonist activity, read-out: sigma-1 affinity
# [10] = delayed syndrome, moderate dose
# [11] = Example 1: NHL, 32 M, MTX 12 mg IT, oral DM 1 mg/kg once
# [12] = Example 2: ALL, 15 M, MTX 12 mg IT and 100 mg/m^2 IV, oral DM 2 mg/kg × 1
# [13] = Example 3: ALL, 19 M, MTX 7.5 mg IO and 1 g/m^2 IV, oral DM 1 mg/kg TID
# [14] = Example 4: OS, 13 M, MTX 12 g/m^2 IV, oral DM 1 mg/kg TID
# [15] = Example 4, DM 1 mg/kg three times on a single day
# [16] = Example 5: OS, 16 M, MTX 12 g/m^2 IV, oral DM 1 mg/kg × 1
# [17] = Example 6: ALL, 18 F, MTX 12 mg IT, oral DM 1 mg/kg BID
# [18] = Example 7: ALL, 6 F, MTX 12 mg IT, oral DM 1 mg/kg BID × 3
# [19] = Example 8: ALL, 9 F, MTX 12 mg IT, oral DM 1 mg/kg BID
# [20] = Example 9: ALL, 14 M, IV and IT MTX, oral DM 1 mg/kg TID
# [21] = Example 10: ALL, 8 F, MTX 12 mg IT, oral DM 1 mg/kg BID
# [22] = Example 11: ALL, 15 F, MTX 12 mg IT, oral DM 1 mg/kg BID
# [23] = Example 12: ALL, 5 M, IV and IT MTX, oral DM 1 mg/kg TID
# [24] = Example 13: ALL, 13 M, MTX 12 mg IT, oral DM 1 mg/kg BID
# [25] = Example 14: ALL, 14 F, MTX 12 mg IT, oral DM 1 mg/kg BID
# [26] = Example 15: ALL, 13 F, MTX 12 mg IT, oral DM 1.5 mg/kg BID × 6
# [27] = Example 16: ALL, 6 M, MTX 12 mg IT, oral DM 1 mg/kg BID × 5
# Sequence of sigma-1 receptor (Q99720 whole entry, species assumed): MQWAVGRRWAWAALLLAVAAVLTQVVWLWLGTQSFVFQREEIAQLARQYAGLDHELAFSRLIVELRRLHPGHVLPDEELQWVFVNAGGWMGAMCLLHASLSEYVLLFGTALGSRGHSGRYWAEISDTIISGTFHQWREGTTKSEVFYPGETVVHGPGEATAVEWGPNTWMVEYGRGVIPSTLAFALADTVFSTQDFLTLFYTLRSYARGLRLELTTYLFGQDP
# Sequence of sigma-1 (Q60492 whole entry): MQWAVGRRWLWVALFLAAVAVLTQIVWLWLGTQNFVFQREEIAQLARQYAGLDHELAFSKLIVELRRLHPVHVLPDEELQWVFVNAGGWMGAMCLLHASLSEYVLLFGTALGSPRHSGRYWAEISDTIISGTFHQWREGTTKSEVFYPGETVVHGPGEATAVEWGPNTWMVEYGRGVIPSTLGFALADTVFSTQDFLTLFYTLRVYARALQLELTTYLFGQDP
# Sequence of sigma-2 (Q5BJF2 whole entry): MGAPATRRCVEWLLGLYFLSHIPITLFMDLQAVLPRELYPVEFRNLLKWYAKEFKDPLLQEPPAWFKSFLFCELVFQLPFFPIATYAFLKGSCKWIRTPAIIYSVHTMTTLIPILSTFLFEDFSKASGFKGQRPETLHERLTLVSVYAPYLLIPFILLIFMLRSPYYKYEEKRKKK
smiles,measurement,setting,value
O=C(OCCOCCN1CCCCC1)N1c2ccccc2Sc2cccnc21 [Pipazethate],pKi,[1]; [9],> 7.30
same,pIC50,[2],6.72
"C=CCN1CCC2(C)c3cc(O)ccc3CC1C2C (single isomer, unassigned; (+)) [(+)-N-allyl-normetazocine]",pKi,[3],6.22
same,pKi,"[1]; Table II, sigma-1 agonists, read-out: sigma-1 affinity",> 7.30
same,pKi,[1]; read-out: sigma-1 affinity Ki,7.24
same,pKi,[4],4.85
"C=CCOc1ccc2c(c1)[C@@]13CCCC[C@H]1[C@@H](C2)N(C)CC3 [CPK-5, 3-allyloxy-17-methylmorphinan]",pKi,[3],4.74
same,pKi,[1]; read-out: sigma-1 affinity Ki,6.81
same,pKi,[4],4.85
CC12CC3CC(C)(C1)CC(N)(C3)C2 [memantine],pKi,[3],6.30
same,pKi,[1]; read-out: sigma-1 affinity Ki,5.59
same,mean CSF/serum ratio,[5],0.52
CCN(CC)CCOCCOC(=O)C1(c2ccccc2)CCCC1 [Carbetapentane],pKi,[1]; [9],> 7.30
same,pIC50,[2],8.05
"Cc1ccc2c(c1)[C@@]13CCCC[C@H]1[C@@H](C2)N(C)CC3 [Dimemorfan, (+)-3-methyl-N-methylmorphinan]",pKi,[3],4.77
same,pKi,[1]; read-out: sigma-1 affinity Ki,6.82
same,pKi,[4],4.96 to 5.40
"CN(Cc1cnc2nc(N)nc(N)c2n1)c1ccc(C(=O)N[C@@H](CCC(=O)O)C(=O)O)cc1 [MTX, Methotrexate]",Incidence,"[6]; acute syndrome, >1 g/m^2, IT",5-40%.
same,Incidence,"[6]; delayed (chronic) syndrome, low dose <10 mg/m^2 oral",Low - 56%.
same,Incidence,"[6]; delayed syndrome, high dose 7-20 g/m^2 every 1-2 weeks",High - 2.3%.
same,"Typical duration of symptoms, insidiously progressive","[6]; delayed syndrome, high dose",High - Insidiously progressive over 3-6 months.
same,Incidence,"[6]; delayed syndrome, moderate dose 10-1000 mg/m^2, depending on net dose",Moderate - 1.9-19.5% depending on net dose.
same,Radiographic findings: leukoencephalopathy,"[6]; delayed syndrome, moderate dose, depending on dose","Moderate - Leukoencephalopathy in 15-75%,"
same,Permanent sequelae: asymptomatic,[6]; [10],asymptomatic in 63-74%.
same,Permanent sequelae: neuropsychologic impairment,[6]; [10],"neuropsychologic impairment 15%,"
same,Permanent sequelae: recurrent seizures,[6]; [10],"Moderate - Recurrent seizures 7-26%,"
same,"Typical duration of symptoms, mean",[6]; subacute syndrome,Mean 38 hours.
same,mean duration of symptoms,[6]; subacute syndrome,approximately 40 hours
"CN1CC[C@]23CCCC[C@H]2[C@H]1Cc1ccc(OCC2CC2)cc13 [CPK-6, 3-cyclopropylmethoxy-17-methylmorphinan]",pKi,[3],4.74
same,pKi,[1]; read-out: sigma-1 affinity Ki,6.83
same,pKi,[4],4.82
CN1CC[C@@]23CCCC[C@@H]2[C@@H]1Cc1ccc(O)cc13 [dextrorphan],pKi,[1]; read-out: sigma-1 affinity Ki,6.84 and 6.85
same,pKi,[4],4.96 to 5.40
same,side-effects,[7],unacceptable PCP-like side-effects
CN(C)CCOCCOC(=O)N1c2ccccc2Sc2ccccc21 [Dimethoxanate],pKi,[1]; [9],> 7.30
same,pIC50,[2],7.39
CCN(CC)CCOC(=O)C1(c2ccccc2)CCCC1 [Caramiphen],pIC50,[2],7.60
"COc1ccc2c(c1)[C@@]13CCCC[C@H]1[C@@H](C2)N(C)CC3 [dextromethorphan, (+)-3-methoxy-N-methylmorphinan]",Grade (1-3) of symptom resolution,[8]; [11],3 (3 = rapid (majority of symptoms resolved in 24 hours or less))
same,Time to initial response,[8]; [11],3 h
same,Time to resolution of all symptoms,[8]; [11],24 h
same,Grade (1-3) of symptom resolution,[8]; [12],3 (3 = rapid (majority of symptoms resolved in 24 hours or less))
same,Time to initial response,[8]; [12],0.50 h
same,Time to resolution of all symptoms,[8]; [12],6 h
same,duration of symptoms,"[8]; Example 3, text, DM 1 mg/kg three times on a single day",10 days
same,Grade (1-3) of symptom resolution,[8]; [13],1 (1 = gradual (symptoms resolved gradually or linearly over an extended period exceeding 96 hours))
same,Time to initial response,[8]; [13],3 h
same,Time to resolution of all symptoms,[8]; [13],240 h
same,Grade (1-3) of symptom resolution,[8]; [14],2 (2 = moderate (majority of symptoms resolved in 25 to 96 hours))
same,Time to initial response,[8]; [14],0.75 h
same,Time to resolution of all symptoms,[8]; [14],72 h
same,duration of symptoms,[8]; [15],3 days
same,time until symptoms began to improve,[8]; [15],45 min
same,duration of symptoms,"[8]; Example 5, text, DM 1 mg/kg once",0.0208 days
same,Grade (1-3) of symptom resolution,[8]; [16],3 (3 = rapid (majority of symptoms resolved in 24 hours or less))
same,Time to initial response,[8]; [16],0.50 h
same,Time to resolution of all symptoms,[8]; [16],0.50 h
same,persistent confusion,"[8]; Example 6, text, DM 1 mg/kg po BID",8 days
same,Grade (1-3) of symptom resolution,[8]; [17],2 (2 = moderate (majority of symptoms resolved in 25 to 96 hours))
same,Time to initial response,[8]; [17],24 h
same,Time to resolution of all symptoms,[8]; [17],192 h
same,Grade (1-3) of symptom resolution,[8]; [18],3 (3 = rapid (majority of symptoms resolved in 24 hours or less))
same,Time to initial response,[8]; [18],4 h
same,Grade (1-3) of symptom resolution,[8]; [19],2 (2 = moderate (majority of symptoms resolved in 25 to 96 hours))
same,Time to initial response,[8]; [19],2 h
same,Grade (1-3) of symptom resolution,[8]; [20],3 (3 = rapid (majority of symptoms resolved in 24 hours or less))
same,Time to initial response,[8]; [20],2 h
same,Time to resolution of all symptoms,[8]; [20],3 h
same,time to complete resolution,"[8]; Example 10, text, DM 1 mg/kg po BID for 24 hours",5 days
same,Grade (1-3) of symptom resolution,[8]; [21],2 (2 = moderate (majority of symptoms resolved in 25 to 96 hours))
same,Time to resolution of all symptoms,[8]; [21],120 h
same,time until back to baseline,"[8]; Example 11, text, DM 1 mg/kg po BID",8 days
same,Grade (1-3) of symptom resolution,[8]; [22],3 (3 = rapid (majority of symptoms resolved in 24 hours or less))
same,Time to initial response,[8]; [22],24 h
same,Time to resolution of all symptoms,[8]; [22],192 h
same,Grade (1-3) of symptom resolution,[8]; [23],3 (3 = rapid (majority of symptoms resolved in 24 hours or less))
same,Time to initial response,[8]; [23],24 h
same,Time to resolution of all symptoms,[8]; [23],24 h
same,Grade (1-3) of symptom resolution,[8]; [24],3 (3 = rapid (majority of symptoms resolved in 24 hours or less))
same,Time to initial response,[8]; [24],24 h
same,Time to resolution of all symptoms,[8]; [24],24 h
same,time until able to speak,"[8]; Example 14, text, DM 1 mg po BID by nasogastric tube",9 days
same,Grade (1-3) of symptom resolution,[8]; [25],1 (1 = gradual (symptoms resolved gradually or linearly over an extended period exceeding 96 hours))
same,Time to initial response,[8]; [25],216 h
same,Time to resolution of all symptoms,[8]; [25],>1000 h
same,Grade (1-3) of symptom resolution,[8]; [26],1 (1 = gradual (symptoms resolved gradually or linearly over an extended period exceeding 96 hours))
same,Time to resolution of all symptoms,[8]; [26],>1000 h
same,time to complete resolution,"[8]; Example 16, text, DM 1 mg/kg po BID for 5 days",about 5 days
same,Grade (1-3) of symptom resolution,[8]; [27],1 (1 = gradual (symptoms resolved gradually or linearly over an extended period exceeding 96 hours)) and 2 (2 = moderate (majority of symptoms resolved in 25 to 96 hours))
same,Time to initial response,[8]; [27],24 to 48 h and 24 h
same,Time to resolution of all symptoms,[8]; [27],120 h
same,mean grade of symptom resolution (mean±SEM),"[8]; treated patients, Examples 1-16, P 0.0042 vs untreated, unpaired t test",2.3±0.2
same,pKd,[1]; read-out: sigma-1 affinity Kd,7.70
same,pKi,[1]; read-out: sigma-1 affinity Ki,6.69 and 6.68
same,pKi,[4],4.96 to 5.40
same,side-effects,[7],unacceptable PCP-like side-effects

# Source: patent US20140171436A1, “TREATMENT OF ANTIFOLATE NEUROTOXICITY” (Syntrix Biosystems, Inc., priority 2003, published 2014)
